Experimental data as given in the supplement of paper PMC11061612.

Experiments:
[1] = system: NMC-G1 (Low Grade Glioma); assay: Bliss excess, mean over the matrix (fraction); higher = more synergy
Procedure, shortened: (§1)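 Cell lines grown in DMEM/F12 or RPMI with 10% FBS were plated in 1536-well plates and held 24 hours at 37°C, 5% CO2 before 72 hours of exposure to two-drug dose matrices, with DMSO typically at 0.2%. CellTiter-Glo 2.0 luminescence gave viability, which was converted to inhibition. Vehicle wells were set to 0 and blank wells to 1. Combination Emax is the second-highest inhibition in the matrix, and Bliss excess is the observed combination effect minus the expected EA + EB − EA·EB, where EA and EB are the single-agent effects.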

GAK (Melanoma) = assay: as above
Procedure, shortened: as §1

[2] = system: P30-OHK (B-Lymphoblastic Leukemia); assay: as above
Procedure, shortened: as §1

[3] = system: ZR-75-30 (Breast Carcinoma); assay: as above
Procedure, shortened: as §1

[4] = system: SNU-407 (Colorectal Carcinoma); assay: as above
Procedure, shortened: as §1

[5] = system: SCC-4 (Oral Cavity Carcinoma); assay: as above
Procedure, shortened: as §1

[6] = system: COR-L88 (Small Cell Lung Carcinoma); assay: as above
Procedure, shortened: as §1

[7] = system: NAMALWA (Burkitt's Lymphoma); assay: as above
Procedure, shortened: as §1

[8] = system: MOLP-8 (Plasma Cell Myeloma); assay: as above
Procedure, shortened: as §1

[9] = system: RCC-JW (Kidney Carcinoma); assay: as above
Procedure, shortened: as §1

[10] = system: SiHa (Cervical Carcinoma); assay: as above
Procedure, shortened: as §1

[11] = system: BxPC-3 (Pancreatic Carcinoma); assay: as above
Procedure, shortened: as §1

[12] = system: LS-1034 (Colorectal Carcinoma); assay: as above
Procedure, shortened: as §1

[13] = system: OAW-28 (Ovarian Carcinoma); assay: as above
Procedure, shortened: as §1

[14] = system: NCI-H1963 (Small Cell Lung Carcinoma); assay: as above
Procedure, shortened: as §1

[15] = system: MM1S (Plasma Cell Myeloma); assay: as above
Procedure, shortened: as §1

[16] = system: P32-ISH (Burkitt's Lymphoma); assay: as above
Procedure, shortened: as §1

[17] = system: NCI-H1341 (Small Cell Lung Carcinoma); assay: combination Emax (second highest fraction inhibited in the dose matrix, 72 h); higher = more inhibition; extreme values may be limits of the assay
Procedure, shortened: as §1

[18] = system: IA-LM (Non-Small Cell Lung Carcinoma); assay: as above
Procedure, shortened: as §1

[19] = system: TUR (Acute Myeloid Leukemia); assay: as above
Procedure, shortened: as §1
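For Bliss excess, mean over the matrix in this document: after 72 h of two-drug dosing.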

Row | SMILES | Bliss excess [1] | Bliss excess (GAK (Melanoma)) | Bliss excess [2] | Bliss excess [3] | Bliss excess [4] | Bliss excess [5] | Bliss excess [6] | Bliss excess [7] | Bliss excess [8] | Bliss excess [9] | Bliss excess [10] | Bliss excess [11] | Bliss excess [12] | Bliss excess [13] | Bliss excess [14] | Bliss excess [15] | Bliss excess [16] | combination Emax [17] | combination Emax [18] | combination Emax [19]
1 | CN(C)CCCOc1ccc(-c2ccc3ncc4c(c3c2)n(C2CCOCC2)c(=O)n4C)cn1 [AZD0156] + C=CCn1c(=O)c2cnc(Nc3ccc(N4CCN(C)CC4)cc3)nc2n1-c1cccc(C(C)(C)O)n1 [AZD1775] (first compound max 1 µM, partner max 1 µM) | -0.0467 | -0.0058 | 0.0179 | -0.0398 | -0.0136 | -0.0393 | -0.0013 | 0.0156 | -0.0739 | -0.061 | -0.0334 | -0.0506 | -0.0318 | -0.0386 | -0.0147 | -0.0653 | -0.011 | 0.675 | 0.231 | 0.772
2 | CN(C)CCCOc1ccc(-c2ccc3ncc4c(c3c2)n(C2CCOCC2)c(=O)n4C)cn1 [AZD0156] + CCN(CCO)CCCOc1ccc2c(Nc3cc(CC(=O)Nc4cccc(F)c4)[nH]n3)ncnc2c1 [AZD2811] (first compound max 1 µM, 7x7, partner max 1 µM) | -0.0855 | -0.0025 | -0.0439 | -0.0415 | -0.0247 | -0.0668 | -0.0279 | 0.0323 | -0.0308 | -0.0243 | -0.0083 | -0.0212 | -0.0261 | -0.0061 | -0.0463 | 0.0135 | -0.0042 | 0.409 | 0.0974 | 0.218
3 | CN(C)CCCOc1ccc(-c2ccc3ncc4c(c3c2)n(C2CCOCC2)c(=O)n4C)cn1 [AZD0156] + C[C@@H]1COCCN1C2=NC(=NC(=C2)C3(CC3)[S@](=N)(=O)C)C4=C5C=CNC5=NC=C4 [AZD6738] (first compound max 1 µM, 7x7, partner max 10 µM) | -0.0603 | 0.0448 | 0.0152 | -0.0305 | -0.0322 | -0.0071 | 0.0772 | 0.0342 | 0.0203 | -0.0531 | -0.0456 | -0.0083 | 0.0161 | -0.0279 | 0.0086 | 0.0173 | 0.0435 | 0.849 | 0.304 | 0.923
4 | C=CCn1c(=O)c2cnc(Nc3ccc(N4CCN(C)CC4)cc3)nc2n1-c1cccc(C(C)(C)O)n1 [AZD1775] + C[C@@H]1COCCN1C2=NC(=NC(=C2)C3(CC3)[S@](=N)(=O)C)C4=C5C=CNC5=NC=C4 [AZD6738] (first compound max 1 µM, partner max 10 µM) | -0.0028 | 0.0196 | 0.0928 | 0.0186 | 0.0031 | -0.0248 | 0.04 | 0.0397 | -0.0064 | 0.0571 | 0.0019 | -0.0161 | 0.0097 | 0.0012 | 0.036 | -0.0128 | 0.0304 | 0.941 | 0.446 | 0.938
5 | C=CCn1c(=O)c2cnc(Nc3ccc(N4CCN(C)CC4)cc3)nc2n1-c1cccc(C(C)(C)O)n1 [AZD1775] + O=C(c1cc(Cc2n[nH]c(=O)c3ccccc23)ccc1F)N1CCN(C(=O)C2CC2)CC1 [Olaparib] (first compound max 1 µM, partner max 10 µM) | -0.0352 | -0.0243 | -0.0021 | -0.0461 | -0.0364 | -0.0341 | -0.0925 | -0.0133 | -0.0294 | -0.0005 | -0.0444 | -0.0266 | 0.0299 | -0.0237 | -0.0252 | -0.0321 | -0.0323 | 0.525 | 0.252 | 0.663
6 | CCN(CCO)CCCOc1ccc2c(Nc3cc(CC(=O)Nc4cccc(F)c4)[nH]n3)ncnc2c1 [AZD2811] + C=CCn1c(=O)c2cnc(Nc3ccc(N4CCN(C)CC4)cc3)nc2n1-c1cccc(C(C)(C)O)n1 [AZD1775] (first compound max 1 µM, partner max 1 µM) | -0.0847 | -0.0522 | -0.0412 | -0.0422 | -0.015 | -0.0024 | -0.0099 | -0.0101 | 0.0185 | -0.0118 | 0.0089 | -0.0099 | 0.0033 | 0.0277 | -0.0448 | 0.0048 | -0.0336 | 0.632 | 0.166 | 0.668
7 | CCN(CCO)CCCOc1ccc2c(Nc3cc(CC(=O)Nc4cccc(F)c4)[nH]n3)ncnc2c1 [AZD2811] + C[C@@H]1COCCN1C2=NC(=NC(=C2)C3(CC3)[S@](=N)(=O)C)C4=C5C=CNC5=NC=C4 [AZD6738] (first compound max 1 µM, 7x7, partner max 10 µM) | -0.117 | -0.056 | -0.0736 | -0.0533 | -0.094 | -0.0707 | -0.0598 | 0.0394 | -0.028 | -0.0203 | -0.0137 | -0.0352 | -0.0473 | -0.0207 | -0.0777 | 0.0151 | -0.0153 | 0.733 | 0.304 | 0.861
8 | CCN(CCO)CCCOc1ccc2c(Nc3cc(CC(=O)Nc4cccc(F)c4)[nH]n3)ncnc2c1 [AZD2811] + O=C(c1cc(Cc2n[nH]c(=O)c3ccccc23)ccc1F)N1CCN(C(=O)C2CC2)CC1 [Olaparib] (first compound max 1 µM, 7x7, partner max 10 µM) | -0.025 | -0.0049 | -0.04 | -0.0225 | -0.0292 | -0.0447 | -0.0475 | 0.0548 | 0.0384 | -0.0021 | -0.0053 | 0.0032 | -0.0253 | -0.0474 | -0.0623 | 0.0541 | -0.035 | 0.294 | 0.222 | 0.285
9 | CN(CCO)CC[C@H](CSc1ccccc1)Nc1ccc(S(=O)(=O)NC(=O)c2ccc(N3CCC([C@@H](O)c4ccccc4-c4ccc(Cl)cc4)CC3)cc2)cc1S(=O)(=O)C(F)(F)F [AZD4320] + C1CN(CCC1(C(=O)N[C@@H](CCO)C2=CC=C(C=C2)Cl)N)C3=NC=NC4=C3C=CN4 [Capivasertib] (first compound max 1 µM, 7x7, partner max 3 µM) | -0.0838 | -0.064 | 0.0169 | -0.0914 | -0.0633 | -0.0454 | 0.0065 | 0.0419 | -0.025 | -0.0559 | -0.0476 | -0.0395 | -0.0089 | -0.0345 | 0.0172 | -0.0076 | 0.001 | 0.974 | 0.376 | 0.559
10 | CN(CCO)CC[C@H](CSc1ccccc1)Nc1ccc(S(=O)(=O)NC(=O)c2ccc(N3CCC([C@@H](O)c4ccccc4-c4ccc(Cl)cc4)CC3)cc2)cc1S(=O)(=O)C(F)(F)F [AZD4320] + C=CCn1c(=O)c2cnc(Nc3ccc(N4CCN(C)CC4)cc3)nc2n1-c1cccc(C(C)(C)O)n1 [AZD1775] (first compound max 1 µM, partner max 1 µM) | 0.0422 | -0.0536 | 0.141 | -0.0083 | -0.0677 | 0.0838 | 0.0578 | -0.0219 | 0.0782 | 0.0546 | -0.0358 | 0.0575 | 0.0344 | 0.0652 | 0.0565 | 0.0981 | 0.107 | 1 | 0.462 | 0.904
11 | Cc1c2c(nn1C)CSCc1cc(n(C)n1)CSc1cc(c3ccccc3c1)OCCCc1c(C(=O)O)n(C)c3c-2c(Cl)ccc13 [AZD5991] + C1CN(CCC1(C(=O)N[C@@H](CCO)C2=CC=C(C=C2)Cl)N)C3=NC=NC4=C3C=CN4 [Capivasertib] (first compound max 1 µM, 7x7, partner max 3 µM) | -0.0172 | -0.029 | 0.0273 | -0.0119 | 0.0036 | 0.0358 | -0.0058 | 0.0008 | 0.0077 | 0.0131 |  | -0.0005 | -0.0042 | 0.045 | 0.0377 | -0.0098 | 0.0276 | 0.647 | 0.15 | 0.913
12 | Cc1c2c(nn1C)CSCc1cc(n(C)n1)CSc1cc(c3ccccc3c1)OCCCc1c(C(=O)O)n(C)c3c-2c(Cl)ccc13 [AZD5991] + CCN(CCO)CCCOc1ccc2c(Nc3cc(CC(=O)Nc4cccc(F)c4)[nH]n3)ncnc2c1 [AZD2811] (first compound max 1 µM, 7x7, partner max 1 µM) | 0.0152 |  | -0.0342 | 0.0825 | -0.034 | 0.0408 | 0.0453 | 0.089 | 0.0543 | 0.0024 | 0.0009 | 0.0412 | -0.0173 | 0.095 | -0.0088 | 0.134 | -0.0194 | 0.341 | 0.296 | 0.536
13 | CCc1c2c(nc3ccc(O)cc13)-c1cc3c(c(=O)n1C2)COC(=O)[C@]3(O)CC [SN-38] + O=C(c1cc(Cc2n[nH]c(=O)c3ccccc23)ccc1F)N1CCN(C(=O)C2CC2)CC1 [Olaparib] (first compound max 0.3 µM, 7x7, partner max 10 µM) | -0.0071 | 0.0227 | 0.0708 | -0.0169 |  | 0.0071 | 0.0785 | 0.0571 | 0.0336 | 0.112 | 0.0271 | -0.005 | 0.0494 |  | 0.099 |  | 0.0645 | 0.99 | 0.878 | 0.994
14 | Cn1cnc2c(F)c(Nc3ccc(Br)cc3Cl)c(C(=O)NOCCO)cc21 [Selumetinib] + C[C@@H]1COCCN1C2=NC(=NC(=C2)C3(CC3)[S@](=N)(=O)C)C4=C5C=CNC5=NC=C4 [AZD6738] (first compound max 10 µM, 7x7, partner max 10 µM) |  | -0.0003 | 0.012 | -0.0495 | 0.1 | -0.0352 | -0.0124 | -0.0083 | 0.0551 | -0.0393 | 0.0006 | -0.0197 | -0.0316 | 0.046 | 0.0735 | 0.0511 | -0.0153 | 0.809 | 0.287 | 0.934
